Measured values reported in the NIST ThermoML archive (doi:10.1021/je060271a).
± gives the expanded uncertainty stated by the source.

Settings: 323.15 K, Liquid, Vibrating tube method

CCCCCCC(=O)OCC(COC(=O)CCCCCC)(COC(=O)CCCCCC)COC(=O)CCCCCC [pentaerythritol tetraheptanoate]
Settings | mass density [kg/m3]
16867 kPa | 966.6 ± 1.2
16877 kPa | 966.8 ± 1.2
16890 kPa | 966.9 ± 1.2
16900 kPa | 966.7 ± 1.2
16913 kPa | 966.7 ± 1.2
17014 kPa | 966.8 ± 1.2
17028 kPa | 966.8 ± 1.2
17038 kPa | 966.9 ± 1.2
17049 kPa | 967 ± 1.2
17062 kPa | 966.9 ± 1.2
17072 kPa | 966.9 ± 1.2
17084 kPa | 966.9 ± 1.2
17095 kPa | 966.8 ± 1.2
17108 kPa | 966.8 ± 1.2
17119 kPa | 967 ± 1.2
17131 kPa | 966.9 ± 1.2
17142 kPa | 967 ± 1.2
17153 kPa | 966.9 ± 1.2
17164 kPa | 967 ± 1.2
17177 kPa | 967 ± 1.2
17188 kPa | 966.9 ± 1.2
17201 kPa | 966.9 ± 1.2
17212 kPa | 967 ± 1.2
17247 kPa | 967 ± 1.2
17258 kPa | 966.9 ± 1.2
17269 kPa | 967 ± 1.2
17282 kPa | 967 ± 1.2
17293 kPa | 967 ± 1.2
17307 kPa | 967.1 ± 1.2
17318 kPa | 967 ± 1.2
17389 kPa | 967 ± 1.2
17412 kPa | 967.1 ± 1.2
17426 kPa | 967 ± 1.2
17437 kPa | 967.2 ± 1.2
17451 kPa | 967.1 ± 1.2
17462 kPa | 967.1 ± 1.2
17474 kPa | 967.2 ± 1.2
17485 kPa | 967.2 ± 1.2
17499 kPa | 967.2 ± 1.2
17511 kPa | 967 ± 1.2
17536 kPa | 967.2 ± 1.2
17548 kPa | 967.2 ± 1.2
17559 kPa | 967.3 ± 1.2
17573 kPa | 967.2 ± 1.2
17584 kPa | 967.3 ± 1.2
17596 kPa | 967.2 ± 1.2
17610 kPa | 967.2 ± 1.2
17621 kPa | 967.1 ± 1.2
17633 kPa | 967.2 ± 1.2
17647 kPa | 967.2 ± 1.2
17746 kPa | 967.4 ± 1.2
17760 kPa | 967.3 ± 1.2
17772 kPa | 967.3 ± 1.2
17810 kPa | 967.3 ± 1.2
17822 kPa | 967.2 ± 1.2
17836 kPa | 967.4 ± 1.2
17848 kPa | 967.3 ± 1.2
17861 kPa | 967.3 ± 1.2
17873 kPa | 967.3 ± 1.2
17899 kPa | 967.4 ± 1.2
17962 kPa | 967.4 ± 1.2
17976 kPa | 967.5 ± 1.2
17989 kPa | 967.4 ± 1.2
18016 kPa | 967.4 ± 1.2
18029 kPa | 967.5 ± 1.2
18041 kPa | 967.5 ± 1.2
18053 kPa | 967.5 ± 1.2
18066 kPa | 967.5 ± 1.2
18080 kPa | 967.5 ± 1.2
18092 kPa | 967.4 ± 1.2
18107 kPa | 967.5 ± 1.2
18119 kPa | 967.5 ± 1.2
18132 kPa | 967.6 ± 1.2
18146 kPa | 967.5 ± 1.2
18159 kPa | 967.5 ± 1.2
18186 kPa | 967.6 ± 1.2
18524 kPa | 967.9 ± 1.2
18537 kPa | 967.8 ± 1.2
18550 kPa | 967.9 ± 1.2
18565 kPa | 967.6 ± 1.2
18579 kPa | 967.8 ± 1.2
18594 kPa | 967.7 ± 1.2
18608 kPa | 967.8 ± 1.2
18621 kPa | 967.8 ± 1.2
18634 kPa | 967.9 ± 1.2
18650 kPa | 967.8 ± 1.2
18663 kPa | 967.8 ± 1.2
18676 kPa | 967.8 ± 1.2
18692 kPa | 967.9 ± 1.2
18704 kPa | 967.9 ± 1.2
18721 kPa | 967.9 ± 1.2
18734 kPa | 967.9 ± 1.2
18747 kPa | 967.9 ± 1.2
18761 kPa | 967.9 ± 1.2
18777 kPa | 967.8 ± 1.2
18790 kPa | 968 ± 1.2
18803 kPa | 968 ± 1.2
18820 kPa | 968 ± 1.2
18833 kPa | 967.9 ± 1.2
18848 kPa | 968 ± 1.2
18862 kPa | 968 ± 1.2
18876 kPa | 968 ± 1.2
18889 kPa | 968.1 ± 1.2
18906 kPa | 968 ± 1.2
18950 kPa | 968 ± 1.2
18977 kPa | 968.1 ± 1.2
18993 kPa | 967.9 ± 1.2
19007 kPa | 968.1 ± 1.2
19021 kPa | 968.1 ± 1.2
19037 kPa | 968.1 ± 1.2
19051 kPa | 968.2 ± 1.2
19064 kPa | 968.1 ± 1.2
19081 kPa | 968 ± 1.2
19096 kPa | 968.1 ± 1.2
19124 kPa | 968 ± 1.2
19140 kPa | 968.1 ± 1.2
19154 kPa | 968.1 ± 1.2
19168 kPa | 968.1 ± 1.2
19182 kPa | 968.1 ± 1.2
19199 kPa | 968.2 ± 1.2
19213 kPa | 968.2 ± 1.2
19228 kPa | 968.1 ± 1.2
19245 kPa | 968.2 ± 1.2
19259 kPa | 968.2 ± 1.2
19273 kPa | 968.3 ± 1.2
19289 kPa | 968.3 ± 1.2
19303 kPa | 968.3 ± 1.2
19320 kPa | 968.2 ± 1.2
19334 kPa | 968.3 ± 1.2
19351 kPa | 968.3 ± 1.2
19366 kPa | 968.3 ± 1.2
19380 kPa | 968.2 ± 1.2
19394 kPa | 968.4 ± 1.2
19411 kPa | 968.4 ± 1.2
19425 kPa | 968.4 ± 1.2
19440 kPa | 968.3 ± 1.2
19457 kPa | 968.3 ± 1.2
19472 kPa | 968.4 ± 1.2
19489 kPa | 968.3 ± 1.2
19503 kPa | 968.3 ± 1.2
19564 kPa | 968.3 ± 1.2
19579 kPa | 968.3 ± 1.2
19597 kPa | 968.4 ± 1.2
19611 kPa | 968.4 ± 1.2
19629 kPa | 968.5 ± 1.2
19644 kPa | 968.5 ± 1.2
19659 kPa | 968.5 ± 1.2
19674 kPa | 968.5 ± 1.2
19688 kPa | 968.5 ± 1.2
19706 kPa | 968.5 ± 1.2
19721 kPa | 968.5 ± 1.2
19738 kPa | 968.5 ± 1.2
19754 kPa | 968.6 ± 1.2
19769 kPa | 968.5 ± 1.2
19787 kPa | 968.5 ± 1.2
19802 kPa | 968.5 ± 1.2
19816 kPa | 968.5 ± 1.2
19834 kPa | 968.5 ± 1.2
19850 kPa | 968.5 ± 1.2
19864 kPa | 968.6 ± 1.2
19882 kPa | 968.7 ± 1.2
19898 kPa | 968.5 ± 1.2
19913 kPa | 968.7 ± 1.2
19928 kPa | 968.6 ± 1.2
19947 kPa | 968.6 ± 1.2
19977 kPa | 968.5 ± 1.2
19995 kPa | 968.5 ± 1.2
20026 kPa | 968.6 ± 1.2
20044 kPa | 968.7 ± 1.2
20059 kPa | 968.7 ± 1.2
20075 kPa | 968.6 ± 1.2
20094 kPa | 968.8 ± 1.2
20109 kPa | 968.7 ± 1.2
20125 kPa | 968.8 ± 1.2
20141 kPa | 968.8 ± 1.2
20159 kPa | 968.8 ± 1.2
20175 kPa | 968.9 ± 1.2
20193 kPa | 968.8 ± 1.2
20209 kPa | 968.9 ± 1.2
20224 kPa | 968.8 ± 1.2
20240 kPa | 968.9 ± 1.2
20258 kPa | 969 ± 1.2
20274 kPa | 968.8 ± 1.2
20293 kPa | 968.9 ± 1.2
20309 kPa | 968.8 ± 1.2
20325 kPa | 968.8 ± 1.2
20344 kPa | 968.9 ± 1.2
20359 kPa | 968.9 ± 1.2
20375 kPa | 968.9 ± 1.2
20390 kPa | 968.9 ± 1.2
20410 kPa | 968.9 ± 1.2
20426 kPa | 969 ± 1.2
20444 kPa | 969 ± 1.2
20460 kPa | 969 ± 1.2
20476 kPa | 968.9 ± 1.2
20496 kPa | 969 ± 1.2
20512 kPa | 969 ± 1.2
20528 kPa | 969 ± 1.2
20544 kPa | 969 ± 1.2
20564 kPa | 969.1 ± 1.2
20580 kPa | 969 ± 1.2
20596 kPa | 969 ± 1.2
20631 kPa | 969.1 ± 1.2
20648 kPa | 969 ± 1.2
20667 kPa | 969.1 ± 1.2
20684 kPa | 969.2 ± 1.2
20700 kPa | 969.1 ± 1.2
20720 kPa | 969.2 ± 1.2
20737 kPa | 969.1 ± 1.2
20755 kPa | 969.2 ± 1.2
20771 kPa | 969.1 ± 1.2
20791 kPa | 969.2 ± 1.2
20808 kPa | 969.1 ± 1.2
20824 kPa | 969.2 ± 1.2
20841 kPa | 969.2 ± 1.2
20861 kPa | 969.3 ± 1.2
20877 kPa | 969.3 ± 1.2
20894 kPa | 969.3 ± 1.2
20914 kPa | 969.2 ± 1.2
20931 kPa | 969.3 ± 1.2
20985 kPa | 969.2 ± 1.2
21022 kPa | 969.1 ± 1.2
21039 kPa | 969.4 ± 1.2
